Test results: patent publication US10144944B2, “Methods of cell culture” (Momenta Pharmaceuticals, Inc., priority 2013, dated 2018)
Like-named read-outs stand apart in the source and are kept apart here.

What was measured:
[1] = test system: model antibody produced by CHO cells
Protocol: (§1) The effect of putrescine on antibody glycoforms of a model antibody produced by CHO cells was analyzed. CHO cells genetically engineered to express the antibody were grown initially in base media (Power CHO2, Catalog #BE15-771, Lonza Inc., Allendale, N.J.). Cells were then inoculated (at 0.55×10^6 cells/mL) into a chemically defined medium containing 0.17 mg/L, 0.35 mg/L, or […] putrescine 2HCl and cultured as a batch culture in TPP tubespins for 7 days.
(§2) Cell viability was assessed on day 4 using a hemocytometer using cells stained with trypan blue. Titer was determined from the day-7 cultures by protein A affinity HPLC. Relative quantitation of each glycoform was performed on purified protein using Chip ToF. Chip ToF uses mass spectrometry to measure the extracted ion chromatogram (XIC) area for each species after chip-based enzymatic removal and purification of N-glycans, relative to the total XIC for detected species (see, e.g., mAb-Glyco Chip Kit, Agilent Technologies).

[2] = test system: CHO cells genetically engineered to express the antibody; settings: for Product titer: day-7 batch culture; for viable cell density (VCD): day 4
Protocol: as §1, §2

[3] = with increasing levels of putrescine, FIG. 4
[4] = with increasing putrescine, FIG. 3

## NCCCCN [putrescine]
[1]; 0.52 mg/L putrescine compared to 0.17 mg/L putrescine, FIG. 3
  relative change in G0F, G1F, and G2F: about 10%
[1]; non-linear relationship, FIG. 2
  putrescine level above which effect on fucosylated glycans saturates: above 0.35 mg/mL
[1]; with increasing levels of putrescine (0.17-0.52 mg/L), FIG. 2
  fraction of fucosylated glycans: increased
[1]; [3]
  high mannose glycans: reduced
  level of sialylated glycans: increased
[1]; with increasing putrescine
  level of galactosylation: increase
[1]; [4]
  levels of G0F: reduced
  levels of G1F: increased
  levels of G2F: increased
[2]; 0.17 mg/L putrescine in medium
  Product titer: 40 mg/L
[2]; 0.17 mg/L putrescine
  viable cell density (VCD): 1.5×10^6 cells/mL
[2]; 0.35 mg/L putrescine in medium
  Product titer: 58 mg/L
[2]; 0.35 mg/L putrescine
  viable cell density (VCD): 1.8×10^6 cells/mL
[2]; 0.52 mg/L putrescine in medium
  Product titer: 73 mg/L
[2]; 0.52 mg/L putrescine
  viable cell density (VCD): 2.2×10^6 cells/mL
